Article PMC12543283, “TastepepAI: An artificial intelligence platform for taste peptide de novo design” (PLOS Computational Biology, 2025)
Values joined by “and” are separate entries in the source; they are usually repeats but may differ in a detail not shown here. Equal entries are not always repeated. Ends that are not written are not given here.

Columns and labels:
[1] = test system: human pancreatic ductal epithelial cells (HPNE)
[2] = Electronic tongue analysis (Taste-Sensing System SA 402B); set-up: unit not given here; details: reference solution 30 mM KCl + 0.3 mM tartaric acid as baseline, first measurement excluded; for Umami: sensor AAE; for Umami / Bitter / Sweet: detection threshold 0, room temperature; for Umami / Bitter / Sour / Salty: four replicates; for Sour: detection threshold -13, room temperature; for Salty: detection threshold -6, room temperature; for Sweet: measured five times
Method in brief: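 Room-temperature electronic-tongue readings with five taste probes, calibrated against a reference of 30 mM KCl and 0.3 mM tartaric acid. Samples at 0.1 mg/mL and 1.0 mg/mL were measured four times, sweetness five times, and the first run was dropped. Detection cut-offs were sour −13, salty −6, others 0.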

[3] = test system: human umbilical vein endothelial cells (HUVEC)
[4] = test system: human bronchial epithelial cells (BEAS-2B)
Protocol: (§1) The cytotoxicity of 73 synthetic peptides was evaluated using four human cell lines: human pancreatic ductal epithelial cells (HPNE), human embryonic kidney cells (HEK293T), human umbilical vein endothelial cells (HUVEC), and human bronchial epithelial cells (BEAS-2B). When cell density reached 70% confluence, the complete culture medium was replaced with serum-free maintenance medium, and peptides were added at a final concentration of 100 μM for 36 h. Control groups received only serum-free maintenance medium without peptides. Cell proliferation was assessed using the CCK-8 assay kit (Solarbio, CA1210) according to the manufacturer’s instructions.

[5] = test system: human embryonic kidney cells (HEK293T)
Protocol: as §1

Row | Substance | Average cell viability, HPNE [1] | Cell viability, HPNE, Data1 [1] | Cell viability, HPNE, Data2 [1] | Cell viability, HPNE, Data3 [1] | Umami ([2]; peptide 0.1 mg/mL) | Umami ([2]; peptide 1 mg/mL) | Bitter ([2]; sensor C00, peptide 0.1 mg/mL) | Bitter ([2]; sensor C00, peptide 1 mg/mL) | Sour ([2]; sensor CA0, peptide 0.1 mg/mL) | Sour ([2]; sensor CA0, peptide 1 mg/mL) | Salty ([2]; sensor CT0, peptide 0.1 mg/mL) | Salty ([2]; sensor CT0, peptide 1 mg/mL) | Sweet ([2]; sensor GL1, peptide 0.1 mg/mL) | Sweet ([2]; sensor GL1, peptide 1 mg/mL) | Average cell viability, HUVEC [3] | Cell viability, HUVEC, Data1 [3] | Cell viability, HUVEC, Data2 [3] | Cell viability, HUVEC, Data3 [3] | Average cell viability, BEAS-2B [4] | Cell viability, BEAS-2B, Data1 [4] | other results
1 | VEKVE [TaPep67] | 96.14 | 105.92 | 99.23 | 83.26 | 1.99 | -4.10 | 7.39 | 4.01 | -4.19 | 10.40 | -19.59 | 9.82 | 6.41 | -3.54 | 100.75 | 112.48 | 97.95 | 91.80 | 110.54 | 94.32 | Cell viability, BEAS-2B, Data2 [4]: 118.94; Cell viability, BEAS-2B, Data3 [4]: 118.34; Average cell viability, HEK293T [5]: 100.22; Cell viability, HEK293T, Data1 [5]: 99.37; Cell viability, HEK293T, Data2 [5]: 105.99; Cell viability, HEK293T, Data3 [5]: 95.30
2 | VPDELN [TaPep23] | 99.63 | 105.82 | 109.52 | 83.56 | 1.53 | -4.39 | 7.18 | 3.47 | -3.15 | 11.00 | -22.67 | 6.69 | 5.26 | -4.58 | 97.76 | 98.19 | 95.72 | 99.39 | 102.53 | 109.87 | Cell viability, BEAS-2B, Data2 [4]: 92.32; Cell viability, BEAS-2B, Data3 [4]: 105.38; Average cell viability, HEK293T [5]: 90.54; Cell viability, HEK293T, Data1 [5]: 91.61; Cell viability, HEK293T, Data2 [5]: 84.89; Cell viability, HEK293T, Data3 [5]: 95.11
3 | YAGNAP [TaPep10] | 95.54 | 97.18 | 94.47 | 94.97 | 3.61 | -3.37 | 6.97 | bitterness suppression and -0.80 | -8.60 | 8.97 | -20.44 | 14.02 | 11.07 | -4.53 | 102.47 | 99.31 | 104.50 | 103.62 | 98.84 | 101.69 | Cell viability, BEAS-2B, Data2 [4]: 95.01; Cell viability, BEAS-2B, Data3 [4]: 99.80; Average cell viability, HEK293T [5]: 99.40; Cell viability, HEK293T, Data1 [5]: 94.83; Cell viability, HEK293T, Data2 [5]: 102.87; Cell viability, HEK293T, Data3 [5]: 100.50
4 | YDGTPLN [TaPep11] | 100.63 | 98.34 | 113.51 | 90.05 | 2.75 | -2.91 | 7.10 | 3.24 | -5.95 | 9.08 | -21.79 | 6.18 | 9.69 | -5.23 | 112.96 | 111.12 | 113.36 | 114.40 | 102.96 | 102.59 | Cell viability, BEAS-2B, Data2 [4]: 99.80; Cell viability, BEAS-2B, Data3 [4]: 106.48; Average cell viability, HEK293T [5]: 102.37; Cell viability, HEK293T, Data1 [5]: 107.03; Cell viability, HEK293T, Data2 [5]: 95.68; Cell viability, HEK293T, Data3 [5]: 104.38
5 | YQAENKH [TaPep14] | 98.70 | 93.34 | 103.13 | 99.63 | 3.07 | -3.87 | 7.83 | 0.38 | -6.58 | 9.86 | -18.09 | 13.64 | 7.88 | -4.10 | 95.42 | 102.42 | 90.29 | 93.56 | 116.78 | 112.46 | Cell viability, BEAS-2B, Data2 [4]: 118.94; Cell viability, BEAS-2B, Data3 [4]: 118.94; Average cell viability, HEK293T [5]: 98.23; Cell viability, HEK293T, Data1 [5]: 95.02; Cell viability, HEK293T, Data2 [5]: 96.25; Cell viability, HEK293T, Data3 [5]: 103.44
